According to patent US10774069B2, “Crystalline forms of a lysyl oxidase-like 2 inhibitor and methods of making” (PHARMAKEA, INC., priority 2016, dated 2020):
Entries after “also recorded” stand apart in the source; their conditions may differ. Structures can show the parent of a compound that is named as a salt. Where two headings read alike, the source gives them in different places.

Legend:
[1] = Protocol: After each addition of solvent, the system was shaken gently for 10 minutes at 50° C. and then allowed to stand at room temperature for 5 min before the addition of a new aliquot of solvent. After the assessment was completed, any suspensions obtained were matured and clear solutions were cooled at 5° C.
Supernatants from maturation were allowed to slowly evaporate at ambient conditions.

[2] = Solid form storage stability at elevated temperature/humidity; format: physicochemical
Protocol: All retrieved solids from the crystallisation attempts were stored at 40° C. and 75% RH.

[3] = molecular target: T1, LOXL2 (Homo sapiens (Human), UniProt Q9Y4K0); assay: Human LOXL2 CCM Assay (Amplex Red amine oxidase activity); format: biochemical; settings: concentrated conditioned media from CHO cells expressing human LOXL2; 2 h at 37° C.
T1 sequence (Q9Y4K0 26-774): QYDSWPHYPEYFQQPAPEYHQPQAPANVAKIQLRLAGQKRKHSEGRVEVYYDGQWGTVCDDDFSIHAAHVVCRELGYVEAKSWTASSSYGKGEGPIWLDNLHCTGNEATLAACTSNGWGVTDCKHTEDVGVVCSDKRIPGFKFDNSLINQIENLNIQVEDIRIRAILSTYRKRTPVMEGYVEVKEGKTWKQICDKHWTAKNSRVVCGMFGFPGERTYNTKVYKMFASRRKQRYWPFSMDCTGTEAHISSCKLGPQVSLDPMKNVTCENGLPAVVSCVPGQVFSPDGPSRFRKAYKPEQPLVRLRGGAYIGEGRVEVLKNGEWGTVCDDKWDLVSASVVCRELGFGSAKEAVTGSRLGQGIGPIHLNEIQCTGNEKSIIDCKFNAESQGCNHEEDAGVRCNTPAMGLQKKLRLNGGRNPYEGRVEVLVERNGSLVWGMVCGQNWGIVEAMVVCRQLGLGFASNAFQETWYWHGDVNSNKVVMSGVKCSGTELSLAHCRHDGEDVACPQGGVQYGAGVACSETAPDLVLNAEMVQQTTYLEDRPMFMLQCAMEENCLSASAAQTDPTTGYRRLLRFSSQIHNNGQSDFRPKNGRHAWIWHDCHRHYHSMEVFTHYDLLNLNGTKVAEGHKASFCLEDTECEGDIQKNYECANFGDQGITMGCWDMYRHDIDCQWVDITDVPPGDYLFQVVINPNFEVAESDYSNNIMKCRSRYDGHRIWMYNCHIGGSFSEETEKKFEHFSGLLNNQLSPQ
Protocol: Human LOXL2/CHO and human LOX/HEK stable cell lines were cultured under normal growth conditions in 15 cm tissue culture plates until cells were ˜80% confluent. Cells were then washed with PBS before the addition of 25-30 mL serum-free media (Phenol red-free DMEM/F12 mix w/glutamax containing pen/strep, 10-100 μM CuCl2±0.1% BSA). Cells were incubated at 37° C., 5% CO2 in serum-free media for 40-48 hours before the conditioned media was removed and centrifuged at 2000 rpm for 5 min at 4° C. to pellet cells/debris. The media was concentrated 10-20× using 10-30 MWCO centriprep columns according to the manufacturer's instructions (EMD Millipore, Billerica, Mass.) before aliquoting and storing at −80° C.
LOXL2 amine oxidase activity was evaluated by measuring Amplex Red fluorescence using 10-20× concentrated conditioned media (non BSA-containing) from CHO cells stably expressing human LOXL2. […] After the 2 h incubation, 5 μL of 10 mM 1,5-Diaminopentane (DAP) diluted in Assay Buffer and 10 μL of Amplex Red Mix (8.5 μL Assay Buffer+0.5 μL of 10 mM Amplex Red+1 μL of 500 U/ml Horseradish Peroxidase) were added and the plate mixed and immediately placed on the FlexStation for fluorescence measurements. Fluorescence was read in kinetic mode every 2 min for 0.5-1 hour at excitation=544 and emission=590. The amine oxidase activity was calculated from the slope of the linear portion of the curve. […]

[4] = Stability studies (accelerated and ICH); format: physicochemical
Protocol: The compounds were assayed according to appearance, purity, related Substances, chiral purity, moisture, DSC, and XRPD

[5] = Clear point / cloud point in IPA:water (Crystal 16); format: physicochemical; settings: mixture of Forms 1 and 4
Protocol: The samples were then cooled from 70 back to −8° C. at the same rate. The clear point upon heating (at 100% transmission) and the cloud point upon re-cooling (<100% transmission) were recorded using the Crystal 16 instrument and the data is shown in Table 17. XRPD analysis was performed on all solids obtained post cooling.

[6] = Forced degradation study; format: physicochemical
[7] = Preliminary free base solubility assessment of Compound I; format: physicochemical; settings: organic solvent or mixture, thermodynamic from solid
Protocol: After each addition of solvent, the system was shaken at 50° C. for 10 min and then allowed to stand at room temperature for 5 min before the addition of a new aliquot of solvent.

[8] = molecular target: T1, LOXL2; assay: In vitro assays, potency of enantiomers; format: biochemical
[9] = Solid form storage stability at elevated temperature/humidity; format: physicochemical; remark: listed apart in the source
[10] = physchem; settings: 25 °C, water, thermodynamic from solid
[11] = Aqueous and organic solubility of Form 1 of Compound 2; format: physicochemical
[12] = Gravimetric Vapor Sorption (GVS); format: physicochemical; settings: 0 to 90% RH
From the text: Gravimetric Vapor Sorption (GVS) isotherms were obtained using an SMS DVS Intrinsic moisture sorption analyser, controlled by DVS Intrinsic Control software v1.0.1.2 (or v 1.0.1.3), over a range of 0 to 90% relative humidity (RH).

In the case of `Cl.NCc1cc(Oc2cccc(C(=O)N3C[C@@H](O)[C@H](F)C3)c2)nc(C(F)(F)F)c1` [Amorphous Compound 1], the solubility [1] is reported as 200 − 100, the “Behaviour at 40° C./75% RH” value ([2]; 40° C./75% RH) is reported as “deliquesces” and the “7 days storage @ 40° C./75% RH, appearance” value ([2]; 40° C./75% RH) is reported as “Glassy material”.

In the case of `Cl.NCc1cc(Oc2cccc(C(=O)N3C[C@@H](O)[C@H](F)C3)c2)nc(C(F)(F)F)c1` [Compound 1, (R,R)-trans-(3-((4-(aminomethyl)-6-(trifluoromethyl)pyridin-2-yl)oxy)phenyl)(3-fluoro-4-hydroxypyrrolidin-1-yl)methanone, hydrochloride salt], the IC50 [3] is reported as under 300 nM and the “Changes in purity or absorption of moisture” value ([4]; 3 month accelerated condition (40° C./75% RH)) is reported as “no significant changes”.

With `NCc1cc(Oc2cccc(C(=O)N3C[C@@H](O)[C@H](F)C3)c2)nc(C(F)(F)F)c1` [Compound 2, (R,R)-trans-(3-((4-(aminomethyl)-6-(trifluoromethyl)pyridin-2-yl)oxy)phenyl)(3-fluoro-4-hydroxypyrrolidin-1-yl)methanone, methanesulfonate salt] the “Clear Point Temperature” value ([5]; 5 mg in 1 mL IPA:water 95:5) was 6.9 °C, the “Clear Point Temperature” value ([5]; 10 mg in 1 mL IPA:water 95:5) was 20.3 °C and the “Clear Point Temperature” value ([5]; 20 mg in 1 mL IPA:water 95:5) was 37.2 °C. The “Clear Point Temperature” value ([5]; 30 mg in 1 mL IPA:water 95:5) was 48.5 °C, the “Cloud Point Temperature” value ([5]; 30 mg in 1 mL IPA:water 95:5) was −7.8 °C and the “Clear Point Temperature” value ([5]; 40 mg in 1 mL IPA:water 95:5) was 55.8 °C. The “Cloud Point Temperature” value ([5]; 40 mg in 1 mL IPA:water 95:5) was −1.8 °C, the “Clear Point Temperature” value ([5]; 60 mg in 1 mL IPA:water 95:5) was 64 °C and the “Cloud Point Temperature” value ([5]; 60 mg in 1 mL IPA:water 95:5) was 14.5 °C. For the same molecule, the “Clear Point Temperature” value ([5]; 70 mg in 1 mL IPA:water 95:5) was 68.6 °C, the “Cloud Point Temperature” value ([5]; 70 mg in 1 mL IPA:water 95:5) was 24.7 °C and the “Solid state stability, heat” value ([6]; solid, 100° C., 24 hours) was “stable”. The “Solid state stability, light” value ([6]; solid, light max 365 nm, 24 hours) was “stable”, the “Solution state stability, heat” value ([6]; solution, 50° C. for 24 hours) was “stable” and the “All attributes tested (appearance, purity, related substances, chiral purity, moisture, DSC, XRPD)” value ([4]; 1 month data, long-term and accelerated conditions of 1-year and 2-year ICH studies) was “within limits”.

In the case of `NCc1cc(Oc2cccc(C(=O)N3C[C@@H](O)[C@H](F)C3)c2)nc(C(F)(F)F)c1` [Compound I, (R,R)-trans-(3-((4-(aminomethyl)-6-(trifluoromethyl)pyridin-2-yl)oxy)phenyl)(3-fluoro-4-hydroxypyrrolidin-1-yl)methanone], the solubility at 10 min ([7]; 2-Propanol) is reported as over 100 mg/mL, the solubility at 10 min ([7]; Acetonitrile) is reported as over 100 mg/mL and the solubility at 10 min ([7]; Dichloromethane) is reported as over 100 mg/mL. The solubility at 10 min ([7]; Ethanol) was over 100 mg/mL, the solubility at 10 min ([7]; Ethyl Acetate) was over 100 mg/mL and the solubility at 10 min ([7]; Hexane) was over 100 mg/mL. The solubility at 10 min ([7]; Tetrahydrofuran) was over 100 mg/mL, the solubility at 10 min ([7]; Toluene, up to 50 vol) was over 20 mg/mL and the “Potency relative to the (S,S)-isomer” value [8] was “less than 2 fold”.

In the case of `Cl.NCc1cc(Oc2cccc(C(=O)N3C[C@@H](O)[C@H](F)C3)c2)nc(C(F)(F)F)c1` [Form 1 of Compound 1], the “Hygroscopicity” value [9] is reported as “hygroscopic solid; also recorded: hygroscopic form”, the solubility [10] is reported as at least 1000 mg/mL and the “Solubility in maturation solvents” value [1] is reported as “insoluble”. For the same molecule, the Behaviour on storage ([2]; 40° C. and 75% RH, after 24 hours) was “deliquescing”, the “Form change on storage” value ([2]; 40° C./75% RH for one week) was “transforms to Form 2” and the “7 days storage @ 40° C./75% RH, appearance” value ([2]; 40° C./75% RH) was “Waxy/glassy solid +”. The “7 days storage @ 40° C./75% RH, resulting XRPD form” value ([2]; 40° C./75% RH) was “particles - Form 2”.

In the case of `CS(=O)(=O)O.NCc1cc(Oc2cccc(C(=O)N3C[C@@H](O)[C@H](F)C3)c2)nc(C(F)(F)F)c1` [Form 1 of Compound 2], the solubility ([11]; aqueous medium, pH 2, aqueous buffer, read-out: Aqueous Solubility) is reported as over 107 mg/mL, the solubility ([11]; aqueous medium, pH 7.4, aqueous buffer, read-out: Aqueous Solubility) is reported as over 107 mg/mL and the solubility ([11]; aqueous medium, pH 10, aqueous buffer, read-out: Aqueous Solubility) is reported as over 85 mg/mL. It also gave a solubility ([11]; ethanol, organic solvent or mixture, EtOH, read-out: Organic Solubility, Qualitative Solubility) of about 15 mg/mL, a solubility ([11]; ethanol/water (90:10), isopropanol/water (90:10), organic solvent or mixture, read-out: Organic Solubility, Qualitative Solubility) of about 50 mg/mL and a solubility ([11]; methanol, tetrahydrofuran/water (90:10), organic solvent or mixture, read-out: Organic Solubility, Qualitative Solubility) of about 100 mg/mL. For the same molecule, the solubility ([11]; organic solvent or mixture, isopropyl acetate, isopropanol, methyl-ethyl ketone, acetone, ethanol, methyl-t-butyl ether, 1,4 dioxane, toluene, tetrahydrofuran, dichloromethane, acetonitrile, read-out: Organic Solubility, Qualitative Solubility) was at most 10 mg/mL, the solubility ([11]; water, dimethyl sulfoxide, read-out: Organic Solubility, Qualitative Solubility) was over 200 mg/mL and the “XRPD after the GVS analysis” value [12] was “X-ray powder diffraction (XRPD): Unchanged”. For the same molecule, the “Polymorph stability on storage” value ([2]; 7 days at 40° C./75% RH and 25° C./97% RH) was “Form 1, which is stable for 7 days at 40° C./75% RH and 25° C./97%”.

With `Cl.NCc1cc(Oc2cccc(C(=O)N3C[C@@H](O)[C@H](F)C3)c2)nc(C(F)(F)F)c1` [Form 2 of Compound 1] the “Thermal stability” value [9] was “thermally stable”, the “7 days storage @ 40° C./75% RH, appearance” value ([2]; 40° C./75% RH) was “Waxy/glassy solid +” and the “7 days storage @ 40° C./75% RH, resulting XRPD form” value ([2]; 40° C./75% RH) was “particles - Form 2”. The “Physical change over time” value ([2]; over time) was “converts over time to a waxy solid” and the Behaviour on storage ([2]; storage conditions (40° C. and 75% RH) for 1 week) was “remained unchanged”.

In the case of `CS(=O)(=O)O.NCc1cc(Oc2cccc(C(=O)N3C[C@@H](O)[C@H](F)C3)c2)nc(C(F)(F)F)c1` [Form 2 of Compound 2], the “Form change on storage” value ([9]; 7 days at 25° C./97% RH) is reported as “change also occurs”, the “Form change after GVS and storage” value ([2]; after GVS analysis and 7 days at 40° C./75% RH) is reported as “phase transformation towards Form 1” and the “Form conversion in humidity” value ([2]; in humidity) is reported as “converts to Form 1”.

For `CS(=O)(=O)O.NCc1cc(Oc2cccc(C(=O)N3C[C@@H](O)[C@H](F)C3)c2)nc(C(F)(F)F)c1` [Form 3 of Compound 2], the “XRPD change on heating and storage” value ([2]; heating to 130° C. and upon the storage conditions) was “changed to Form 1”.
